Test system: Modified CHO K1 cells
Assay: Selection efficiency of transfectant cells by FACS (GFP+ population)
Assay type: cell-based, Chinese hamster
Description: Modified CHO K1 cells were transfected with a plasmid vector containing CHO-GPT (SEQ ID NO: 2), human GPT (SEQ ID NO:12) or a plasmid vector containing a hygromycin phosphotransferase (Hpt, Hygromycin resistant gene); e.g. the selectable marker gene (CHO-GPT or hpt) was transcriptionally linked to a downstream eGFP gene via an IRES sequence, in their respective vectors. For example, each plasmid was constructed to contain the following gene sequences, in 5′ to 3′ direction: a Lox site, a SV40 late promoter, either CHO-GPT (or Hpt), IRES, enhanced green fluorescent protein (eGFP), and a second Lox site. Purified recombinant plasmids were transfected together with a plasmid that expresses Cre recombinase, into a modified CHO host cell line containing: from 5′ to 3′, a lox site, YFP, and a second lox site, at a transcriptionally active locus. Consequently, the host CHO cell can be isolated by flow cytometry as a green-positive or a yellow-negative cell. […]
Cell populations were either incubated with 0, 1 μg/ml, 2.5 μg/ml or 5 μg/ml tunicamycin (Tn) or 400 μg hygromycin (Hyg), as outlined in Table 2. Observed recombinant populations (ORPs) were measured by fluorescent-activated cell sorting (FACS) analysis. Cells were sorted to quantitate each population of cells, and selection efficiency was calculated for cells expressing only GFP and not YFP (FIG. 4 or 5). […]

Substance: tunicamycin
- Selection efficiency compared with hygromycin selection: as efficient as hygromycin selection
